{
  "source": "ChEMBL document CHEMBL5136976",
  "about": "“A Perspective on Medicinal Chemistry Approaches for Targeting Pyruvate Kinase M2” (J Med Chem, 2022)",
  "data": [
    {"biological_target": "Pyruvate kinase PKM (Homo sapiens) (UniProt P14618)", "sequence (P14618 2-531 limits assumed)": "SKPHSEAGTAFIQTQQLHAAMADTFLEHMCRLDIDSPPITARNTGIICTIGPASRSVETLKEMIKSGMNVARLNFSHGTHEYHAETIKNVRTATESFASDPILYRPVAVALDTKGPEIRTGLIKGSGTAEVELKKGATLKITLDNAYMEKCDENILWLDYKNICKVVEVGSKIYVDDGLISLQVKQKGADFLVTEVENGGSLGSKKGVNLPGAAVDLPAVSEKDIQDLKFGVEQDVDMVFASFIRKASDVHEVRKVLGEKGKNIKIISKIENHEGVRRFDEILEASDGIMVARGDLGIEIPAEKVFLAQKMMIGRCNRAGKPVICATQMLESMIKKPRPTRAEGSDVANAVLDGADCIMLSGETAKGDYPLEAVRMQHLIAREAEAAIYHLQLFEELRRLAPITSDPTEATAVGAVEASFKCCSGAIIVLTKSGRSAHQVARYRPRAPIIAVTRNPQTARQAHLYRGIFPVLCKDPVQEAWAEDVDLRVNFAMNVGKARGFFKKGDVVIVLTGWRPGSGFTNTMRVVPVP", "experiment": "Inhibition of PKM2 (unknown origin)", "parameters": "concentration or dose not given beside the values", "conditions": "concentration not given here", "units": {"inhibition": "%"}, "values": [
      {"compound": "N[C@@H](Cc1ccccc1)C(=O)O", "inhibition": 100},
      {"compound": "O=C(O)[C@@H]1CCCN1", "inhibition": 65},
      {"compound": "N[C@@H](Cc1c[nH]c2ccccc12)C(=O)O", "inhibition": 65},
      {"compound": "C[C@@H](O)[C@H](N)C(=O)O", "inhibition": 20},
      {"compound": "CC[C@H](C)[C@H](N)C(=O)O", "inhibition": 20},
      {"compound": "CSCC[C@H](N)C(=O)O", "inhibition": 65},
      {"compound": "CC(C)[C@H](N)C(=O)O", "inhibition": 65},
      {"compound": "C[C@H](N)C(=O)O", "inhibition": 100},
      {"compound": "N[C@@H](CS)C(=O)O", "inhibition": 20}
    ]},
    {"biological_target": "Pyruvate kinase PKM (Homo sapiens) (UniProt P14618)", "experiment": "Inhibition of recombinant PKM2 (unknown origin) Asp178, Asp177, Ser362, Lys367, Hie78, Ser205, Gly128, Thr129, Tyr83, Asn75, Ile51 residues at 40 uM relative to control", "conditions": "not given", "units": {"inhibition": "%"}, "values": [
      {"compound": "O=C(O[C@@H]1Cc2c(O)cc(O)cc2O[C@@H]1c1cc(O)c(O)c(O)c1)c1cc(O)c(O)c(O)c1", "inhibition": 49}
    ]},
    {"system": "CCc1nnc(SCc2ccccc2F)c2cc3sc(C)cc3n12", "experiment": "Binding affinity to PKM2 (unknown origin) assessed as Michaelis-constant", "conditions": "Homo sapiens; filed as activator", "units": {"Km": "µM"}, "values": [
      {"compound": "Pyruvate kinase PKM (Homo sapiens), P14618", "Km": 480}
    ]}
  ]
}
